Experiments:
CB1R = assay: Changes in CB1 receptor expression and translocation; format: cell-based; details: CBGA 5 μM, 10 μM, dose-dependent; FIG. 11
Description: FIG. 11 Changes in receptor expression.

BCL2 = assay: Western blot of phosphorylated BCL2 (anti-apoptotic marker); format: cell-based, human; details: CBGA 5 μM and 10 μM on Aβ1-42 (5 μM) treated cells, FIG. 10
Experimental: (§1) For Western blot analysis, control and the treated cells were harvested and lysed in cold lysis buffer (150 mM NaCl, 50 mM Tris-HCl, 1% Triton X-100, 0.1% SDS, 0.5% Sodium deoxycholate, and 1% protease-phosphatase inhibitor mixture). The supernatants were collected and protein concentrations were determined using Bio-Rad protein assay (Bio-Rad Laboratories). Whole cell lysates (10 μg) were subjected to 10% SDS-polyacrylamide electrophoresis and transferred to nitrocellulose membrane. The membranes were blocked with 5% skim milk in TBS-T (Tris-buffered saline with 0.05% Tween-20) for 1 h at RT and blotted overnight in the presence of monoclonal anti-mouse MAP2 (1:1000, Sigma, cat. no. M1406), Tau (1:1000, Invitrogen, cat. no. AHB0042), TUJI (1:5000, BioLegend, cat. no. MMS-435P), BAX (1:1000, Cell signaling, cat. no. 2772) and rabbit polyclonal total and phosphorylated BCL (1:1000, Cell signaling, antibodies #2827 and 2870). The membranes were washed and incubated for 1 h in RT with either horseradish peroxidase (HRP)-conjugated goat anti-mouse (1:2000) or goat anti-rabbit antibodies (1:2000) (Jackson Lab). The membranes were washed and developed using chemiluminescence detection kit (Millipore, Billerica, MA, USA) on Alpha Innotech FluorChem 8800. β-Actin or Vinculin was used as a loading control. […]

[1] = tested on: differentiated SH-SY5Y human neuronal cells; assay: MTT assay: neuroprotection from Aβ1-42 induced cytotoxicity; format: cell-based; details: FIG. 7
Experimental: (§2) Cell Culture and Differentiation: The SH-SY5Y human neuronal cell line was derived from neuroblastoma established from a metastatic bone tumor (patient with neuroblastoma). The cells were maintained in DMEM:F12 culture medium supplemented with 10% FBS and 1% Antibiotic-Antimycotic penicillin/streptomycin (growth medium) at 37° C. in a humidified atmosphere of 5% CO2. To induce neuronal differentiation of SH-SY5Y cells, culture media was replaced by a growth medium containing Retinoic Acid (RA) for 4-5 days at 37° C. in a humidified atmosphere of 5% CO2.
(§3) Compounds and Dosing Formulations: Selected cannabinoids: CBD, CBDA, CBC, CBG, CBGA, CBN, CBND and Δ^9-THC were procured from Cayman Chemicals and TRC. Ethanol (100%) was used as the solvent to prepare 1 and 10 mM stock solutions. Treatment concentrations for CBGA were prepared at 0.5 μM, 1.5 μM, 5 μM, 10 μM, 15 μM, 20 μM. Treatment concentrations for CBD, CBDA, CBC, CBN, CBND and Δ^9-THC were prepared at 0.5, 1.5, 5 and for CBG at 0.5 μM, 1.5 μM, 5 μM, 10 μM, 15 μM. Treatments were prepared directly in the control medium (DMEM:F12+5% FBS+1% Antibiotic-Antimycotic) by using appropriate stock solutions.
(§4) Evaluation of Cytotoxicity and Neuroprotection: Evaluation of cannabinoids neuroprotection and cytotoxicity on differentiated SH-SY5Y human neuronal cells was carried out by MTT (3-(4,5-dimethylthiazol-2-yl)-2,5-diphenyltetrazolium bromide) assay. Initially, cannabinoid cytotoxicity and neuroprotection were evaluated in a primary screen assay without the presence of cytotoxicity inducing insult agents. […] The Retinoic Acid (RA) differentiated SH-SY5Y neuronal cells were seeded onto 96-well plates (10,000 cells/well) in DMEM:F12 complete medium. Cells were differentiated for 4-5 days in the presence of RA.
(§5) MTT Assay: For the MTT assay, differentiated SH-SY5Y neuronal cells were treated with cannabinoids at various concentrations for 72 hrs in the presence of STSR at 75 nM, 100 nM, 150 nM and 200 nM or for 24 hrs in the presence of […] at 5 μM, respectively and processed to determine cytotoxicity. Briefly, 5 mg/mL of methylthiazolyldiphenyl-tetrazolium bromide (Sigma-Aldrich) stock solution was prepared in PBS. Following treatment of SH-SY5Y neuronal cells with cannabinoids for 72 hrs, the cells were incubated with 20 μL of MTT stock solution in 200 μL DMEM for 2 hrs at 37° C. Following subsequent washes with PBS, 200 μL of isopropanol was added to each well. The resulting change in color from dissolving formazan salt was immediately quantified using a spectrophotometer (BMG Labtech) at a wavelength of 570 nm. […] The results are illustrated in FIGS. 1-7.

[2] = tested on: differentiated SH-SY5Y human neuronal cells; assay: MTT assay: neuroprotection from Staurosporin (STSR) induced cytotoxicity; format: cell-based
Experimental: as §2, §3, §4, §5

[3] = tested on: differentiated SH-SY5Y cells; assay: Immunocytochemistry of TuJ1 and neuronal morphology; format: cell-based, human; details: 5 μM and 10 μM, FIG. 14
Experimental: FIG. 14 Morphological characterization of CBGA, THC and CBN mediated changes in differentiated SH-SY5Y cells. SH-SY5Y cells were differentiated with RA (10 μM) for 5 days as indicated. (A) Representative confocal photomicrographs showing changes in the cellular distribution of Tuj1 in RA induced differentiated SH-SY5Y cells following treatment with CBGA, THC and CBN. (B) Histogram showing the effect of CBGA, CBN, THC on neurite length.

Tuj1 = assay: Western blot of Tuj1 neuritogenesis marker; format: cell-based, human; details: 5 μM and 10 μM, FIG. 13
Experimental: FIG. 13 CBGA upregulates the expression of Tuj1 neuritogenesis marker. Developmental changes in prominent intracellular marker of neurite growth, neuron-specific III β-tubulin (Tuj1) was determined using Western blot analysis. CBGA increased the expression of Tuj1 in differentiated SH-SY5Y cells. FIG. 13 also provides a histogram showing densitometric analysis of relative expression of Tuj1. β-Actin was used as a loading control. P<0.05 for CBGA 10 μM vs Control by One-Way ANOVA.
For Western blot analysis, control and the treated cells were harvested and lysed in cold lysis buffer (150 mM NaCl, 50 mM Tris-HCl, 1% Triton X-100, 0.1% SDS, 0.5% Sodium deoxycholate, and 1% protease-phosphatase inhibitor mixture). The supernatants were collected and protein concentrations were determined using Bio-Rad protein assay (Bio-Rad Laboratories). Whole cell lysates (10 μg) were subjected to 10% SDS-polyacrylamide electrophoresis and transferred to nitrocellulose membrane. […]

[4] = tested on: differentiated SH-SY5Y human neuronal cells; assay: MTT assay: cytotoxicity of the substance alone (primary screen, no added insult); format: cell-based
Experimental: as §2, §3, §4, §5

BAX = assay: Western blot of BAX (pro-apoptotic marker); format: cell-based, human; details: CBGA alone or in the presence of Aβ1-42 (5 μM), FIG. 9
Experimental: as §1

CCCCCc1cc(O)c(C/C=C(\C)CCC=C(C)C)c(O)c1C(=O)O [CBGA, 3-[(2E)-3,7-dimethylocta-2,6-dienyl]-2,4-dihydroxy-6-pentylbenzoic acid]
CB1R expression and translocation (CB1R): promotes translocation of CB1R to the Golgi apparatus
BCL2 expression (BCL2): abrogates the downregulation of BCL2
protection from Aβ1-42 induced insult ([1]; 0.15 μM, 0.5 μM, 1.5 μM, 5 μM, 10 μM and 15 μM with Aβ1-42 5 μM, dose-dependent): protected cells
effect with Aβ1-42 at the highest concentration ([1]; 20 μM with Aβ1-42 5 μM): resulted in cell death
neuroprotection against STSR insult-induced cytotoxicity ([2]; 0.5 μM to 20 μM with STSR 75 nM, FIG. 5): significant dose-dependent neuroprotection
neuroprotection against STSR-induced cytotoxicity ([2]; 0.5 μM, 1.5 μM and 5 μM with STSR 75 nM, 72 hrs, FIG. 3): significant neuroprotection
Cell Death (%) vs STSR at 75 nM, significance ([2]; 5 μM with STSR 75 nM, compared to STSR-alone, One-Way ANOVA, FIG. 3): Statistically significant neuroprotection
protection from STSR induced cytotoxicity ([2]; 5 μM, 10 μM and 15 μM with STSR 75 nM, FIG. 6): protected
Cell Death (%) vs STSR, significance ([2]; 10 μM and 15 μM with STSR 75 nM, FIG. 6): Statistically significant neuroprotection
TuJ1 expression, immunocytochemistry [3]: promotes upregulation of TuJ1 expression
TuJ1 expression, Western blot (Tuj1): promotes upregulation of TuJ1 expression
effect on survival in primary screen ([4]; 1.5 μM, 5 μM and 15 μM, FIG. 1): pro-survival neuroprotective effect
Cell Death (%) vs Vehicle Control ([4]; 15 μM, pre-screen, FIG. 1): pro-survival
cell death under basal conditions ([4]; CBGA alone up to 20 μM, FIG. 4): did not result in cell death
cell proliferation under basal conditions ([4]; CBGA alone up to 20 μM, FIG. 4): induced dose-dependent cell proliferation
BAX expression (BAX): attenuates BAX expression to the control levels

— patent publication US20230381205A1, “COMPOSITIONS AND METHODS FOR TREATING NEURONAL DISORDERS WITH CANNABINOIDS” (INMED PHARMACEUTICALS INC., priority 2020, published 2023)
